The test system of test [1] is mycoplasma strain no. 81115. The test is described as follows: Mycoplasmas/Inhibitory concentration test, strain 81115. Format: cell-based. The procedure: (§1) The test was carried out on microtiter plates. Series of concentrations of the active compound in 0.01 N soda solution were prepared. The concentrations were from 256 μg/ml to 0.0156 μg/ml.
(§2) 0.5 ml of an active compound solution are placed in each identation in the microtiter plate. To this 0.5 ml of an inoculum of mycoplasmas containing about 10^6 organisms per ml were added.
(§3) The inoculum consisted of a modified mycoplasma broth (PPLO) which contained about 20% of horse serum and in which mycoplasmas had been cultured to a titer of about 10^7 organisms per ml (determined by the MacCrady method).
(§4) Then the microtiter plate was incubated at 37° C. and the growth determined after 48, 72 and 96 hours. That concentration of active compound, which prevented any increase in the moculated mycoplasmas was taken as the MIC-value.

Test [2] deals with mycoplasma strain no. 4587. The test is described as follows: Mycoplasmas/Inhibitory concentration test, strain 4587. The format is cell-based. The procedure:
as §1, §2, §3, §4

Test [3] deals with mycoplasmas mycopneumoniae. The test is described as follows: Treatment of mycoplasmoses in pigs. The format is in vivo, piglets. The following applies: lungs examined on the 34th day. An excerpt:
Groups of 5 piglets with an average weight of 25 kg were fed with standard piglet feed from the beginning of the test, to which feed the stated quantities of active compound had been added.
On the 4th day after the beginning of the test, the animals were infected with mycoplasmas mycopneumoniae. As from the 10th day the animals were only given feed not containing any active compound. On the 34th day the animals were killed and the lungs were examined for lesions.

Test [4] concerns mycoplasma strain no. 6442. The test is described as follows: Mycoplasmas/Inhibitory concentration test, strain 6442. Format: cell-based. The procedure: as §1, §2, §3, §4
Test [5] has as its system mycoplasma strain no. 7981. The test is described as follows: Mycoplasmas/Inhibitory concentration test, strain 7981. Format: cell-based. The protocol: as §1, §2, §3, §4
In the next test the test system is mycoplasma gallisepticum. The test is described as follows: Treatment of mycoplasmoses in poultry. The format is in vivo, chicken. Particulars: for clinical symptoms: animals killed 19 days after infection; for Average weight of the animals after 14: after 14 days; for Average weight of the animals after 19: after 19 days; for Average weight of the animals after 0: day 0 (before treatment). The protocol: Groups of 40 chicken which were free from mycoplasma gallisepticum and mycoplasma synoviae were infected at the second day after hatching with a pathogenic wild strain of mycoplasma gallisepticum. The treatment began 24 hours after the infection. One group of 40 chickens was not treated and served as a control. The chickens were treated via their drinking water at 5 successive days following the infection. 19 days after the infection the animals were killed, weighed and examined.

The subject of test [6] is mycoplasma strain no. 348. The test is described as follows: Mycoplasmas/Inhibitory concentration test, strain 348. Format: cell-based. The following applies: NO.348, read-out: MIC value, mycoplasma strain no. 348. The protocol: as §1, §2, §3, §4
In test [7] the test system is mycoplasma strain no. 8008. The test is described as follows: Mycoplasmas/Inhibitory concentration test, strain 8008. The format is cell-based. The protocol:
as §1, §2, §3, §4

The mark [8] stands for this setting: 250 ppm in drinking water, 5 successive days.
[9] abbreviates: NO.81115, series 256 μg/ml to 0.0156 μg/ml, growth after 48, 72 and 96 hours, 37° C., read-out: MIC value, mycoplasma strain no. 81115.
The mark [10] stands for this setting: NO.4587, series 256 μg/ml to 0.0156 μg/ml, growth after 48, 72 and 96 hours, 37° C., read-out: MIC value, mycoplasma strain no. 4587.
The mark [11] stands for this setting: NO.6442, series 256 μg/ml to 0.0156 μg/ml, growth after 48, 72 and 96 hours, 37° C., read-out: MIC value, mycoplasma strain no. 6442.
[12] abbreviates: NO.7981, series 256 μg/ml to 0.0156 μg/ml, growth after 48, 72 and 96 hours, 37° C., read-out: MIC value, mycoplasma strain no. 7981.
Setting [13] is: NO.8008, series 256 μg/ml to 0.0156 μg/ml, growth after 48, 72 and 96 hours, 37° C., read-out: MIC value, mycoplasma strain no. 8008.
Setting [14] is: 500 ppm in drinking water, 5 successive days.

≈ marks a conversion by molar mass, not a printed value. Like-named read-outs stand apart in the source and are kept apart here.

As usually defined, the MIC is the lowest concentration that inhibits growth of the organism. As to `CCN1CCN(c2cc3c(cc2F)c(=O)c(C(=O)O)cn3C2CC2)CC1` [Compound I], the minimal inhibitory concentration (MIC) in test [1] (NO.81115, read-out: MIC value, mycoplasma strain no. 81115) was found to be 0.5 mg/L (≈ 1.39 µM); in test [2] (NO.4587, read-out: MIC value, mycoplasma strain no. 4587), 0.5 mg/L (≈ 1.39 µM); in test [4] (NO.6442, read-out: MIC value, mycoplasma strain no. 6442), 0.15 mg/L (≈ 0.417 µM); in test [5] (NO.7981, read-out: MIC value, mycoplasma strain no. 7981), 0.5 mg/L (≈ 1.39 µM); in test [6], 0.5 mg/L (≈ 1.39 µM); in test [7] (NO.8008, read-out: MIC value, mycoplasma strain no. 8008), 0.25 mg/L (≈ 0.696 µM). Further, the “result (lung lesions)” value in test [3] (50 mg/kg in the feed) and in test [3] (100 mg/kg in the feed) was “no lesions” in each case. The clinical symptoms result in the test on mycoplasma gallisepticum (setting [8]) is listed as “none”. In the test with mycoplasma gallisepticum (setting [8]), the “Average weight of the animals after 14” value is listed as 355.7. The “Average weight of the animals after 19” value in the test with mycoplasma gallisepticum (setting [8]) was 463.8. Besides, the “Average weight of the animals after 0” value in the test on mycoplasma gallisepticum (250 ppm in drinking water) is 47.3.

For `CCn1cc(C(=O)O)c(=O)c2ccc(C)nc21` [nalidixic acid], the MIC in test [1] (setting [9]), in test [2] (setting [10]), in test [4] (setting [11]), in test [5] (setting [12]), in test [6] and in test [7] (setting [13]) was 128 mg/L (≈ 551 µM) each time.

With `CC1CCc2cc(F)cc3c(=O)c(C(=O)O)cn1c23` (stereo not drawn) [flumequine], the minimal inhibitory concentration (MIC) in test [1] (setting [9]), in test [2] (setting [10]), in test [4] (setting [11]), in test [5] (setting [12]), in test [6] and in test [7] (setting [13]) was 256 mg/L (≈ 980 µM) each time.

Turning to `C=C[C@]1(C)C[C@@H](OC(=O)CSCCN(CC)CC)[C@]2(C)[C@H](C)CC[C@]3(CCC(=O)[C@H]32)[C@@H](C)[C@@H]1O` [Tiamulin], in test [3] (200 mg/kg in the feed, control 10%), the “result (lung lesions)” value came out at 5%.

As for Tylocin, in the test on mycoplasma gallisepticum (setting [14]), the clinical symptoms result is recorded as “clearly noticeable”, the “Average weight of the animals after 14” value is recorded as 311.9 and the “Average weight of the animals after 19” value stood at 426.3. Also, the “animals dead (clinical symptoms)” value in the test on mycoplasma gallisepticum (500 ppm in drinking water, 5 successive days, groups of 40 chickens) is “no animals dead”. Further, the “Average weight of the animals after 0” value with mycoplasma gallisepticum (500 ppm in drinking water) was found to be 48.4.

The values are drawn from patent publication US5145853A, “Bactericidal formulations for use in veterinary medicine” (Bayer Aktiengesellschaft, priority 1985, dated 1992).
